For data set [1], the system named is primary human dermal fibroblasts. The data set can be described thus: MTT reduction assay, early toxicity, 4 h treatment. The data set is classed as cell-based. The following applies: up to 100 μM. The procedure, abridged: (§1)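 Cells plated the day before, exposed to compounds for 4 h, then MTT 0.5 mg/mL for 40–60 min at 37 °C; reduced dye dissolved in DMSO, read at 540 nm relative to vehicle wells. IC50 by four-parameter fit; otherwise % inhibition at 100 μM.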

Data set [2] has as its system A2780 cells. Nature of the data set: MTT reduction assay, early toxicity, 4 h treatment. The data set is classed as cell-based. In outline: as §1
Data set [3] relates to primary human dermal fibroblasts. The data set can be described thus: SRB binding assay, cytostasis, 48 h treatment. The data set is classed as cell-based. The following applies: for Fibroblast SRB Max Inhibition: up to 100 μM, ND = not detectable. The procedure, abridged:
(§2)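 Ovarian cancer A2780 cells and primary human dermal fibroblasts treated 48 h, TCA-fixed, SRB-stained, absorbance at 540 nm relative to vehicle. IC50 from four-parameter fit when a plateau was reached or inhibition exceeded 90%; otherwise percent inhibition at 100 μM.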
(In SRB staining, fixed cells bind dye roughly in proportion to their protein.)

Data set [4] relates to A2780 cells. The data set can be described thus: SRB binding assay, cytostasis, 48 h treatment. The note with it: for A2780 SRB Max Inhibition: up to 100 μM, ND = not detectable. The data set is classed as cell-based. The procedure, abridged:
as §2

Data set [5] concerns methicillin-resistant Staphylococcus aureus (MRSA) clinical isolates. The data set can be described thus: Broth microdilution MIC, clinical MRSA isolates. In kind it is cell-based. The note with it: 24 h, 0.08–40 μM. The procedure, abridged: (§3)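 S. aureus and E. faecium clinical isolates (Debrecen, 2018–2020; MALDI-TOF-identified) tested by EUCAST broth microdilution in Mueller–Hinton broth at 5.0 × 10^5 CFU/mL across 0.08–40 μM (twofold). After 24 h at 37 °C, visually read; MIC is the lowest concentration giving ≥50% inhibition versus growth control. At least two runs in duplicate.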
For orientation: Dilution methods test growth across graded concentrations, often in twofold steps.

In data set [6] the test system is vancomycin-resistant Enterococcus (VRE) clinical isolates. The data set can be described thus: Broth microdilution MIC, clinical VRE isolates. In kind it is cell-based, E. faecium. The following applies: 24 h, 0.08–40 μM. The procedure, abridged:
as §3

Data set [7] is described as follows: Distribution coefficient (logD), n-octanol-PBS. The data set is classed as physicochemical. The note with it: n-octanol-PBS (pH = 7.4) system. Here is the method:
The logD values of the newly synthesized complexes were determined according to a procedure described in our previous publications. page 64: Ir-7b +1.17 Rh-7b +1.41 Ru-7c +1.31 Os-7c +1.59 Ir-7c +1.40 Rh-7c +1.13 Ru-7d +1.26 Os-7d +1.42 Ir-7d +1.30 Rh-7d +1.04 Ru-7e +2.22 Os-7e +2.21 Ir-7e +1.39 Rh-7e +1.66 *logD was determined in an n-octanol-PBS (pH = 7.4) system 64 (14 pictures or pasted objects on this page, not shown here)

Data set [8] has as its system Staphylococcus aureus (ATCC29213). Nature of the data set: Broth microdilution MIC, reference strain. The data set is classed as cell-based. The following applies: 0.08–40 μM, read-out: MIC S. aureus ATCC 29213. The procedure, abridged:
(§4)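 EUCAST broth microdilution in Mueller–Hinton broth, inoculum 5.0 × 10^5 CFU/mL, compounds at 0.08–40 μM (twofold dilutions), 24 h at 37 °C. Plates read visually; MIC taken as lowest concentration giving ≥50% inhibition versus drug-free growth control.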

Data set [9] concerns Enterococcus faecalis (ATCC29212). The data set can be described thus: Broth microdilution MIC, reference strain. The note with it: 24 h, tested range 0.08–40 μM, read-out: MIC E. faecalis ATCC 29,212. The data set is classed as cell-based. The procedure, abridged: as §4
[10] abbreviates: inhibition at maximum concentration (100 μM) where no plateau, ND = not detectable.
Where [11] appears, read: clinical isolate 20,426 MRSA, read-out: MIC 20,426 MRSA.
The mark [12] stands for this setting: clinical isolate 24,035 MRSA, read-out: MIC 24,035 MRSA.
Setting [13] is: clinical isolate 24,268 MRSA, read-out: MIC 24,268 MRSA.
Setting [14] is: clinical isolate 24,272 MRSA, read-out: MIC 24,272 MRSA.
Where [15] appears, read: clinical isolate 24,328 MRSA, read-out: MIC 24,328 MRSA.
The mark [16] stands for this setting: clinical isolate 24,408 MRSA, read-out: MIC 24,408 MRSA.
The mark [17] stands for this setting: clinical isolate 25,051 VRE, read-out: MIC 25,051 VRE.
[18] abbreviates: clinical isolate 25,498 VRE, read-out: MIC 25,498 VRE.
Setting [19] is: clinical isolate 27,085 VRE, read-out: MIC 27,085 VRE.

Like-named read-outs stand apart in the source and are kept apart here.

This is an account of results in article PMC10096180, “Half-Sandwich Type Platinum-Group Metal Complexes of C-Glucosaminyl Azines: Synthesis and Antineoplastic and Antimicrobial Activities” (Molecules, 2023).

In general, IC50 refers to the point on the concentration scale where inhibition reaches its midpoint. By MIC is commonly meant the lowest concentration found to suppress growth. Usually logD stands for the decadic logarithm of the distribution of all forms, ionised or not, between an organic phase and buffer at a given pH. Read a high logD as a more lipophilic compound. On to `Cc1c(C)c(C)[c-](C)c1C.F[P-](F)(F)(F)(F)F.N[C@@H]1[C@@H](OC(=O)c2ccccc2)[C@H](OC(=O)c2ccccc2)[C@@H](COC(=O)c2ccccc2)O[C@H]1c1ccccn1.[Cl][Rh+2]` [Rh-7a], for which the “Fibroblast MTT Max Inhibition” value in data set [1] came out at 27.02%. The “A2780 MTT Max Inhibition” value in data set [2] (setting [10]) is recorded as 35.97%. Further, the “Fibroblast SRB Max Inhibition” value in data set [3] is given as 32.56%. In [4], this molecule showed an IC50 of 18.2 µM. In addition, the “A2780 SRB Max Inhibition” value in [4] is on record as above 90%. Also, the MIC in [5] (setting [11]), in [5] (setting [12]), in data set [5] (setting [13]), in [5] (setting [14]), in [5] (setting [15]) and in [5] (setting [16]) was above 40 µM in each case. In addition, the MIC in [6] (setting [17]), in [6] (setting [18]), in [6] (setting [19]), in data set [8] (24 h) and in [9] was above 40 µM in each case. The molecule further had a logD in data set [7] of 1.20.
Turning to `Cc1ccc(C(C)C)cc1.F[P-](F)(F)(F)(F)F.N[C@@H]1[C@@H](OC(=O)c2ccccc2)[C@H](OC(=O)c2ccccc2)[C@@H](COC(=O)c2ccccc2)O[C@H]1c1ccccn1.[Cl][Os+]` [Os-7a], in [1], the “Fibroblast MTT Max Inhibition” value amounted to 65.18%. In addition, the IC50 was 13.8 µM in [2] and 8.58 µM in data set [4]. In addition, the “A2780 MTT Max Inhibition” value in [2] (setting [10]) is above 90%. Also, in data set [3], the “Fibroblast SRB Max Inhibition” value stood at 49.00%. The “A2780 SRB Max Inhibition” value in data set [4] was above 90%. In addition, the MIC in data set [5] (setting [11]) is 10 µM; in data set [5] (setting [12]) it was 10 µM; in data set [5] (setting [13]), 5 µM; in data set [5] (setting [14]), 5 µM; in [5] (setting [15]), 5 µM; in data set [5] (setting [16]), 5 µM. Also, the MIC in [6] (setting [17]) came to 5 µM; in data set [6] (setting [18]) it was 5 µM; in data set [6] (setting [19]) it was 10 µM; in data set [8] (24 h) it was 10 µM; in [9], 5 µM. Besides, in [7], the logD is listed as 2.15.
As for `Cc1c(C)c(C)[c-](C)c1C.F[P-](F)(F)(F)(F)F.N[C@@H]1[C@@H](OC(=O)c2ccccc2)[C@H](OC(=O)c2ccccc2)[C@@H](COC(=O)c2ccccc2)O[C@H]1c1ccccn1.[Cl][Ir+2]` [Ir-7a], the “Fibroblast MTT Max Inhibition” value in data set [1] is recorded as 65.18%. The IC50 in [2] was 11.6 µM; in data set [4], 6.2 µM. Besides, the “A2780 MTT Max Inhibition” value in data set [2] (setting [10]) is listed as above 90%. Moreover, the “Fibroblast SRB Max Inhibition” value in data set [3] stood at 56.31%. Besides, in data set [4], the “A2780 SRB Max Inhibition” value was above 90%. Also, the minimum inhibitory concentration (MIC) in data set [5] (setting [11]) turned out to be 10 µM; in [5] (setting [12]), 10 µM; in [5] (setting [13]) it was 10 µM; in data set [5] (setting [14]), 10 µM; in data set [5] (setting [15]), 20 µM; in data set [5] (setting [16]), 10 µM. Moreover, the MIC in data set [6] (setting [17]) stood at 40 µM; in [6] (setting [18]), 40 µM; in data set [6] (setting [19]), 40 µM; in data set [8] (24 h), 20 µM; in data set [9], 40 µM. The molecule further came in with a logD in data set [7] of 1.08.
The term inhibition denotes the percentage by which the read-out fell short of the control. As to `N[C@@H]1[C@@H](OC(=O)c2ccccc2)[C@H](OC(=O)c2ccccc2)[C@@H](COC(=O)c2ccccc2)O[C@H]1c1ccccn1` [Complex 7a, 2-(2′-Amino-2′-deoxy-3′,4′,6′-tri-O-benzoyl-β-D-glucopyranosyl)pyridine], the “Fibroblast MTT Max Inhibition” value in data set [1] was determined as 27.02%. Also, in data set [2] (Homo sapiens, inhibition at maximum concentration (100 μM) where no plateau, ND = not detectable, read-out: A2780 MTT Max Inhibition), the inhibition at 100 µM was 18.6%. In addition, in [3], the “Fibroblast SRB Max Inhibition” value is reported as 26.00%. In data set [4], the “A2780 SRB Max Inhibition” value is given as 76.24%. Also, the MIC in [5] (Staphylococcus aureus, clinical isolate 20,426 MRSA, read-out: MIC 20,426 MRSA) was above 40 µM; in data set [5] (Staphylococcus aureus, clinical isolate 24,035 MRSA, read-out: MIC 24,035 MRSA) it was above 40 µM; in data set [5] (Staphylococcus aureus, clinical isolate 24,268 MRSA, read-out: MIC 24,268 MRSA) it was above 40 µM; in [5] (Staphylococcus aureus, clinical isolate 24,272 MRSA, read-out: MIC 24,272 MRSA), above 40 µM; in [5] (Staphylococcus aureus, clinical isolate 24,328 MRSA, read-out: MIC 24,328 MRSA) it was above 40 µM; in data set [5] (Staphylococcus aureus, clinical isolate 24,408 MRSA, read-out: MIC 24,408 MRSA) it was above 40 µM. Also, the minimal inhibitory concentration (MIC) in [6] (Enterococcus, clinical isolate 25,051 VRE, read-out: MIC 25,051 VRE) was above 40 µM; in data set [6] (Enterococcus, clinical isolate 25,498 VRE, read-out: MIC 25,498 VRE), above 40 µM; in data set [6] (Enterococcus, clinical isolate 27,085 VRE, read-out: MIC 27,085 VRE) it was above 40 µM; in data set [8] (Staphylococcus aureus, ATCC29213, 24 h) it was above 40 µM; in [9] (Enterococcus faecalis), above 40 µM.
As for `Cc1c(C)c(C)[c-](C)c1C.F[P-](F)(F)(F)(F)F.N[C@@H]1[C@@H](OCc2ccccc2)[C@H](OCc2ccccc2)[C@@H](COCc2ccccc2)O[C@H]1c1ccccn1.[Cl][Ir+2]` [Ir-3a], the “A2780 MTT Max Inhibition” value in data set [2] (setting [10]) is on record as 82.71%. The IC50 in [3] (read-out: Fibroblast SRB IC50) turned out to be 14.1 µM; in data set [4], 1.69 µM. In data set [4], the “A2780 SRB Max Inhibition” value is listed as above 90%. Moreover, the minimum inhibitory concentration (MIC) in [5] (setting [11]) amounted to 10 µM; in data set [5] (setting [12]), 20 µM; in [5] (setting [13]) it was 5 µM; in data set [5] (setting [14]) it was 10 µM; in data set [5] (setting [15]), 10 µM; in data set [5] (setting [16]), 10 µM. The MIC in data set [6] (setting [17]) is on record as 10 µM; in data set [6] (setting [18]) it was 10 µM; in data set [6] (setting [19]) it was 10 µM; in data set [8] (24 h), 20 µM; in data set [9], 20 µM. Further, the logD in data set [7] is reported as 3.18.
Take `Cc1ccc(C(C)C)cc1.F[P-](F)(F)(F)(F)F.N[C@@H]1[C@@H](OC(=O)c2ccccc2)[C@H](OC(=O)c2ccccc2)[C@@H](COC(=O)c2ccccc2)O[C@H]1c1ccccn1.[Cl][Ru+]` [Ru-7a]: the “Fibroblast MTT Max Inhibition” value in data set [1] came out at 65.18%. For the same molecule, the IC50 in data set [2] was found to be 9.15 µM; in data set [4], 4.11 µM. Further, the “A2780 MTT Max Inhibition” value in data set [2] (setting [10]) is recorded as above 90%. In data set [3], the “Fibroblast SRB Max Inhibition” value was 56.31%. For the same molecule, in data set [4], the “A2780 SRB Max Inhibition” value is reported as above 90%. The MIC in data set [5] (setting [11]), in data set [5] (setting [12]), in data set [5] (setting [13]), in data set [5] (setting [14]), in data set [5] (setting [15]) and in data set [5] (setting [16]) was 5 µM in each case. Further, the MIC in data set [6] (setting [17]), in [6] (setting [18]), in [6] (setting [19]), in data set [8] (24 h) and in data set [9] was 5 µM each time. This molecule registered a logD in data set [7] of 1.15.
